Results as given in patent US20070134349A1, “Methods of treating hematological malignancies” (DUKE UNIVERSITY, priority 2005, published 2007).
Read-outs that look alike come from different tables or passages of the source.

Columns and labels:
H3 [1] = assay: Western blot of phospho-H3 (Ser-10) in NB4 cells; type: cell-based; conditions: NB4 cells, 24 h
Procedure: (§1) Whole-cell lysates were prepared by washing the cells with PBS and resuspending them in 1 ml of lysis buffer (1× phosphate-buffered saline, 1 mM EDTA, 1.5 mg/ml of iodoacetamide, 100 μM sodium orthovanadate, 0.5% Triton X-100, 20 mM β-glycerolphosphate, 0.2 mM phenylmethylsulfonyl fluoride, and 1× complete protease inhibitor cocktail). After clarification by a 15-min centrifugation in a microcentrifuge at 4° C., the resulting supernatant was collected. 20-50 μg of protein extracts were separated on a 10% SDS-polyacrylamide gel and transferred to a nitrocellulose membrane. The membrane was blocked with 5% nonfat milk followed by incubation with antibodies. The immunocomplex was visualized by chemiluminescence.

ERK1/2 [2] = assay: Western blot of phospho-ERK1/2 in NB4 cells; type: cell-based; conditions: 24 h
Procedure: as §1

[3] = in human; cited from earlier work
[4] = cited from earlier work
H3 [5] = assay: Western blot of acetyl-H3 and phospho-H3 in U-937 cells; type: cell-based; conditions: higher concentrations, 18 h
Procedure: as §1

[6] = in non-human primates; cited from earlier work
C/EBPβ = assay: Western blot of phospho-C/EBPβ (Thr-235) and C/EBPβ in NB4 cells; type: cell-based
Procedure: as §1

[7] = in rats; cited from earlier work
RARE-TK-Luc reporter = RARE-TK-Luc reporter transient transfection in NB4 cells; type: cell-based; conditions: MAA 5 mM, 19 h
Procedure: Electroporation was performed using a Gene Pulser (BioRad, Hercules, Calif.) apparatus at 300 V and 960 μF capacity. […] Cells were harvested 19 h after transfection/treatment for luciferase and β-galactosidase activities.

U-937 cells [8] = assay: CD11c expression by flow cytometry in U-937 cells; type: cell-based; conditions: lower concentrations, 3 days
Procedure: (§2) NB4 cells were provided by Dr. Ronald Evans (Salk Institute, La Jolla, Calif.). NB4-R4 cells were provided by Dr. Wilson Miller (McGill University, Montreal, Canada). HL-60, U-937, and Kasumi-1 cells were obtained from the American Type Culture Collection (Rockville, Md.). NB4 and NB4-R4 cells were grown in RPMI medium 1640 containing 10% fetal bovine serum. U-937 cells were grown in RPMI medium 1640 containing 10 mM HEPES, 1 mM sodium pyruvate, 4.5 g/L glucose, and 10% fetal bovine serum. HL-60 cells were grown in Iscove's Modified Dulbecco's medium containing 20% fetal bovine serum. Kasumi-1 cells were grown in RPMI medium 1640 containing 10 mM HEPES, 1 mM sodium pyruvate, 4.5 g/L glucose, and 20% fetal bovine serum.
(§3) To determine the percentage of cells that express differentiation markers, cells were washed once and resuspended in RPMI medium 1640 containing 3% fetal bovine serum. Phycoerythrin (PE)-conjugated CD11b, 5 Allophycocyanin (APC)-CD11c or control antibodies (BD Pharmingen, San Diego, Calif.) were added into cell suspension. After 30 minutes of incubation in the dark at 4° C., the cells were washed twice and resuspended in RPMI medium 1640 containing 7-amino actinomycin D (AAD) (for dead cell exclusion) and analyzed by FACScan (Becton Dickinson).

NB4 cells [9] = assay: Differentiation markers CD11c/CD11b by flow cytometry in NB4 cells; type: cell-based
Procedure: as §2, §3

U-937 cells [10] = assay: Annexin V binding in U-937 cells; type: cell-based; conditions: higher concentrations, 3 days
Procedure: as §2
(§4) To determine the percentage of cells that undergo apoptosis, after incubation with APC-CD11c antibody in the dark at 4° C., cells were washed twice with PBS and incubated at room temperature for 15 min with PE-conjugated Annexin-V (BD Pharmingen) and 7-AAD in binding buffer (10 mM HEPES, pH 7.4, 140 mM NaCI, 2.5 mM CaCl2) and analyzed by FACScan for CD11c expression and Annexin V binding. Apoptotic cells are those that stained positive for Annexin V and negative for 7-AAD.

Kasumi-1 cells = assay: CD11c expression by flow cytometry in Kasumi-1 cells; type: cell-based; conditions: 3 days
Procedure: as §2, §3

NB4 cells [11] = assay: Apoptosis by Annexin V binding (flow cytometry) in NB4 cells; type: cell-based; conditions: MAA 5 mM alone, NB4 cells, 3 days
Procedure: as §2, §4

PML-RARα = molecular target: T1, PML-RARα (Homo sapiens, UniProt P10276+P29590); assay: Western blot of PML-RARα and RARα in NB4 cells; type: cell-based; conditions: 3 days
T1 construct: PML portion (fusion partner, UniProt P29590); endogenous in cells; host or cells: NB4 cells
T1 sequence (P29590+P10276 with tags, fused parts or gaps): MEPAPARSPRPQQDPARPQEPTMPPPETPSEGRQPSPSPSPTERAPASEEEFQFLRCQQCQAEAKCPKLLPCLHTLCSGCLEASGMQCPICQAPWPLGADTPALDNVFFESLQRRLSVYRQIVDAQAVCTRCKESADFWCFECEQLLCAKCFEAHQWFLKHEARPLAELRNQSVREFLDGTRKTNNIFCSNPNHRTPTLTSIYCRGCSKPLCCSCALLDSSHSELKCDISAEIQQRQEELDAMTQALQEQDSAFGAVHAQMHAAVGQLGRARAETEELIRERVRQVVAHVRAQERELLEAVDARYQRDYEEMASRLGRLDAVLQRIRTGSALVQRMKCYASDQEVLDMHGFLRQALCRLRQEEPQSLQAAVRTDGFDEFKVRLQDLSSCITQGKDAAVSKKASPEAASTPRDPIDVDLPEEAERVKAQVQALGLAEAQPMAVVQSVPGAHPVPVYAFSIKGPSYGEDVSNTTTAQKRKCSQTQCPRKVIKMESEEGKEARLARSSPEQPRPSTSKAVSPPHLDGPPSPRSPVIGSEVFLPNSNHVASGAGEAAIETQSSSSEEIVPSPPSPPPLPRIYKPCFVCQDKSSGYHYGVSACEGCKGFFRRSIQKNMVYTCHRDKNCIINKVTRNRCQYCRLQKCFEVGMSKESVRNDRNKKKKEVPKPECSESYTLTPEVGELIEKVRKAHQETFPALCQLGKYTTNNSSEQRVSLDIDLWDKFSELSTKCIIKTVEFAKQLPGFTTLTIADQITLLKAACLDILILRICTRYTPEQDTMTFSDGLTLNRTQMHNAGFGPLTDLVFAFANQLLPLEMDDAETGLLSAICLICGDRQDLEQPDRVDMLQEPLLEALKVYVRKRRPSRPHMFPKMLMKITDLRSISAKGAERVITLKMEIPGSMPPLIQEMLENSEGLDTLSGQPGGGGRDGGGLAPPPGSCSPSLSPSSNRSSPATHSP
Procedure: as §1

HL-60 cells = assay: CD11c expression by flow cytometry in HL-60 cells; type: cell-based; conditions: 48 h
Procedure: as §2, §3

ERK1/2 [12] = assay: Western blot of phospho-ERK1/2 in U-937 cells; type: cell-based; conditions: higher concentrations, 18 h, total ERK1/2 unaffected
Procedure: as §1

histones H3 and H4 = assay: Western blot of acetylated histones H3 and H4 in NB4 cells; type: cell-based
Procedure: as §1

[13] = cited from earlier work; remark: listed apart in the source
[14] = industrial solvent of which MAA is a metabolite; cited from earlier work

In the case of `COCC(=O)O` [MAA, methoxyacetic acid], the “H3 phosphorylation (Ser-10)” value (H3 [1]; higher concentrations) is reported as “dramatically increased”, the “H3 phosphorylation (Ser-10)” value (H3 [1]; lower concentrations) is reported as “without effect” and the “levels of phosphorylated ERK” value (ERK1/2 [2]; higher concentrations (no differentiating effects), total ERK not decreased) is reported as “dramatically decreased”. For the same molecule, the “constitutive levels of phosphorylated ERK” value (ERK1/2 [2]; lower concentrations) was “did not change”, the elimination half-life [3] was 77.1 h and the half-life in vivo ([4]; Shih et al 2001) was “long”. The “H3 acetylation and phosphorylation” value (H3 [5]) was “increase”, the elimination half-life [6] was 20 h and the “level of phosphorylated C/EBPβ at Thr-235” value (C/EBPβ; 17 h) was “dose-dependent increase”. For the same molecule, the “phosphorylation of C/EBPβ at Thr-235” value (C/EBPβ; lower concentrations, 24 h) was “maximal phosphorylation”, the elimination half-life [7] was 13 to 18 h and the “transcription of RARE-containing reporter gene (RARE-TK-Luc)” value (RARE-TK-Luc reporter) was “does not activate”. The “expression of the differentiation marker CD11c” value (U-937 cells [8]) was “increasing expression”, the “percentage of cells expressing CD11c induced by ATO” value (NB4 cells [9]; MAA 1 mM added to ATO 0.1 to 1 μM, NB4 cells, 3 days) was “significantly increases” and the “percentage of cells expressing CD11b” value (NB4 cells [9]; MAA 1 mM alone, NB4 cells, 24 h, from 26%) was 51%. The “expression of CD11c and CD11b” value (NB4 cells [9]; MAA 5 mM alone, NB4 cells, 3 days) was “can induce expression”, the “NB4 cell differentiation (CD11c)” value (NB4 cells [9]; MAA 5 mM, 21 h) was “can induce NB4 cell differentiation” and the “percentage of cells expressing CD11c” value (NB4 cells [9]; NB4 cells, 24 h, from 32%) was 41%. For the same molecule, the “percentage of NB4 cells expressing the myeloid differentiation markers CD11c and CD11b” value (NB4 cells [9]; NB4 cells, 3 days) was “comparable to ATRA”, the NB4 differentiation (NB4 cells [9]; NB4 cells, FIG. 10) was “potent inducers” and the “apoptosis (Annexin V)” value (U-937 cells [10]) was “inducing apoptosis”. For the same molecule, the “percentage of cells expressing CD11c” value (Kasumi-1 cells) was “increased”, the “apoptosis (Annexin V)” value (NB4 cells [11]) was “does not induce significant amount of apoptosis” and the “degradation of RARα and accumulation of ΔPML-RARα” value (PML-RARα) was “not observed”. The “expression level of PML-RARα fusion protein” value (PML-RARα) was “no effect”, the “differentiation as evidenced by expression of CD11c” value (HL-60 cells) was “induce differentiation” and the “activity of ERK1/2 (phospho-ERK1/2)” value (ERK1/2 [12]) was “downregulate”. The “HDACI potency relative to BA” value (histones H3 and H4; as shown in the applicant's study (histone acetylation)) was “less potent HDACI than BA”, the “H3 or H4 acetylation” value (histones H3 and H4; concentrations optimal for differentiation, NB4 cells, 24 h) was “no significant increase” and the “H3 and H4 acetylation” value (histones H3 and H4; concentrations required for apoptosis, NB4 cells, 24 h) was “robust acetylation”.
For `CC(/C=C/C(=O)NO)=C\[C@@H](C)C(=O)c1ccc(N(C)C)cc1` [TSA, trichostatin A], the metabolism ([4]; in vivo) is given as “rapidly metabolized” and the “activity in vivo (anti-tumor)” value [13] is given as “does not exhibit significant activity”.
In the case of `COCCO` [ethylene glycol monomethyl ether], the developmental toxicity [14] is listed as “developmental toxicant”.
